We go through eight molecules from patent US10975068B2, “6-aminopyridin-3-yl thiazoles as modulators of RORγT” (Janssen Pharmaceutica NV, priority 2016, dated 2021).

Each structure is given as a SMILES string. pIC50, pKd: −log10 of the molar value. Read-outs that look alike come from different tables or passages of the source.

Experiment [1] concerns the target human RORγt ligand binding domain (RORγt LBD) (Homo sapiens (Human), UniProt P51449). The experiment is described as follows: RORγt ThermoFluor® assay (thermal shift binding). The settings on record: read-out: ThermoFluor® Assay, Kd. An outline of the steps: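 His-tagged human RORγt LBD (0.065 mg/mL) with 60 μM 1,8-ANS in 100 mM Hepes pH 7.0, 10 mM NaCl, 2.5 mM GSH, 0.002% Tween-20 was heated at 1 °C/min.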

For a further experiment, the target named is full-length human RORγt (Homo sapiens (Human), UniProt P51449). The experiment is described as follows: RORγt (full-length human) reporter assay, Conditions B or C. The settings on record: for pIC50: read-out: RORγt (FL) Reporter Assay B or C, IC50; for RORγt (FL) Reporter Assay B or C, % inhibition (value marked *): marked *: footnote not given; for inhibition at 3 µM: at 3 μM compound concentration, read-out: RORγt (FL) Reporter Assay B or C, % inhibition. Type of experiment: cell-based. An outline of the steps: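 HEK293T cells transiently co-transfected with GAL4-DBD–full-length human RORγt (nt 142-1635, NM_001001523.1) plus GAL4-firefly and CMV-Renilla luciferase reporters; compounds added 4-6 h post-transfection for 16-20 h in 1.3% FBS, 0.1% DMSO. Firefly signal normalized to DMSO and saturating reference compound, then to Renilla; IC50 from concentration plots.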
Chain of full-length human RORγt (P51449 other isoform, or with tags, fused parts or gaps): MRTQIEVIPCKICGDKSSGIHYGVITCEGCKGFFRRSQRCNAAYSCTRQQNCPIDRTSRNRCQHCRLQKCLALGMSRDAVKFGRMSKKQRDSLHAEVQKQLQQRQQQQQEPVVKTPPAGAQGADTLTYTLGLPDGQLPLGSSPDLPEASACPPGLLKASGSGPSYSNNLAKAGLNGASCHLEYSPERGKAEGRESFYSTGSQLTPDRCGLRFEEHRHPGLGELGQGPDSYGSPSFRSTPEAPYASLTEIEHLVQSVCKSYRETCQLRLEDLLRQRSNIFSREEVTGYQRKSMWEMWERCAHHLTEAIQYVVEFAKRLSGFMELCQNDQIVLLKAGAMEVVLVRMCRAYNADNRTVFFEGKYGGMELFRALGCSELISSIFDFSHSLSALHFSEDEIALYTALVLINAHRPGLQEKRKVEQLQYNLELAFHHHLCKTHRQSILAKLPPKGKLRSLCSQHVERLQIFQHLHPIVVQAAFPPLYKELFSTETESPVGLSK
(In a reporter assay the amount or activity of a reporter protein is the signal.)

Chain of human RORγt ligand binding domain (RORγt LBD) (P51449 other isoform, or with tags, fused parts or gaps): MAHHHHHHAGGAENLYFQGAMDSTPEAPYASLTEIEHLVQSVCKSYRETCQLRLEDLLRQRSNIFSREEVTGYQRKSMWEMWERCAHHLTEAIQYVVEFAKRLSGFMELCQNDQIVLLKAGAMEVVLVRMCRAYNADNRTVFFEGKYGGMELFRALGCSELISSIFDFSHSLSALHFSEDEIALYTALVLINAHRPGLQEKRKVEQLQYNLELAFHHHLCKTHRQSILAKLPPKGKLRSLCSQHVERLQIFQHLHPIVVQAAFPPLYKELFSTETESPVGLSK

By pKd is commonly meant the Kd on a negative log10 scale, so that one unit is a factor of ten. As usually defined, the pIC50 is the IC50 on a negative log10 scale, so that one unit is a factor of ten. On to `C[C@H]1CC(F)(F)CN1C(=O)c1nc(C(=O)NCC(C)(C)O)sc1-c1cnc(NCC(C)(C)C)cc1C(F)(F)F` [Example 85, (S)-4-(4,4-Difluoro-2-methylpyrrolidine-1-carbonyl)-N-(2-hydroxy-2-methylpropyl)-5-(6-(neopentylamino)-4-(trifluoromethyl)pyridin-3-yl)thiazole-2-carboxamide], for which the pKd in experiment [1] was 9.28. Besides, at full-length human RORγt (Conditions B or C, marked ***: footnote not given), the “RORγt (FL) Reporter Assay B or C, % inhibition (value marked ***)” value is recorded as 128*** %. Further, at full-length human RORγt (Conditions B or C), the pIC50 is 7.57.

As for `C[C@H]1CCCCN1C(=O)c1nc(C(=O)NCC(C)(C)O)sc1-c1cnc(NC2(C)CCC2)cc1C(F)(F)F` [Example 81, (S)—N-(2-Hydroxy-2-methylpropyl)-5-(6-((1-methylcyclobutyl)amino)-4-(trifluoromethyl)pyridin-3-yl)-4-(2-methylpiperidine-1-carbonyl)thiazole-2-carboxamide], the pKd in experiment [1] was 9.77. On full-length human RORγt (Conditions B or C), the “RORγt (FL) Reporter Assay B or C, % inhibition (value marked *)” value is given as 105* % and the negative logarithm of the IC50 (pIC50) was 8.03.

The term inhibition denotes the drop in the measured response relative to a control, in per cent. Take `C[C@H]1CCCN1C(=O)c1nc(C(=O)N[C@H]2CC[C@@H](O)C2)sc1-c1cnc(NC(C)(C)C)cc1C(F)(F)F` [Example 367, 5-[6-(tert-Buylamino)-4-(trifluoromethyl)-3-pyridyl]-N-[(1S,3R)-3-hydroxycyclopentyl]-4-[(2S)-2-methylpyrrolidine-1-carbonyl]thiazole-2-carboxamide]: in experiment [1], the pKd was 8.68. In addition, on full-length human RORγt, the inhibition at 3 µM was found to be 99% and the pIC50 is 7.68.

For `C[C@H]1CCCN1C(=O)c1nc(C(=O)NC2CCC2O)sc1-c1cnc(NC(C)(C)C)cc1C(F)(F)F` (stereo partly drawn) [Example 369, 5-(6-(tert-Butylamino)-4-(trifluoromethyl)pyridin-3-yl)-N-(trans-2-hydroxycyclobutyl)-4-((S)-2-methylpyrrolidine-1-carbonyl)thiazole-2-carboxamide], the pKd in experiment [1] was 9.15. Also, at full-length human RORγt, the inhibition at 3 µM stood at 106% and the pIC50 is 8.18.

As for `C[C@H](Nc1cc(C(F)F)c(-c2sc(C(=O)NC3CCS(=O)(=O)CC3)nc2C(=O)N2CCC[C@@H]2C)cn1)C(F)(F)F` [Example 187, 5-(4-(Difluoromethyl)-6-(((S)-1,1,1-trifluoropropan-2-yl)amino)pyridine-3-yl)-N-(1,1-dioxidotetrahydro-2H-thiopyran-4-yl)-4-((S)-2-methylpyrrolidine-1-carbonyl)thiazole-2-carboxamide], the pKd in experiment [1] is 8.17. Further, on full-length human RORγt (Conditions B or C), the “RORγt (FL) Reporter Assay B or C, % inhibition (value marked *)” value is 85* % and the negative logarithm of the IC50 (pIC50) is 6.85.

With `C[C@H](Nc1cc(C(F)F)c(-c2sc(C(=O)N[C@@H]3CCC[C@H]3O)nc2C(=O)N2CC(F)(F)C[C@@H]2C)cn1)C(F)(F)F` [Example 420, 4-[(2S)-4,4-Difluoro-2-methyl-pyrrolidine-1-carbonyl]-5-[4-(difluoromethyl)-6-[[(1S)-2,2,2-trifluoro-1-methyl-ethyl]amino]-3-pyridyl]-N-[(1R,2R)-2-hydroxycyclopentyl]thiazole-2-carboxamide], the negative-log Kd (pKd) in experiment [1] was 9.14. At full-length human RORγt, the inhibition at 3 µM stood at 103% and the pIC50 was 7.49.

Regarding `C[C@H]1CCCN1C(=O)c1nc(C(=O)NCC(C)(C)O)sc1-c1cnc(NCC2CCC2)cc1C(F)F` [Example 301, (S)-5-(6-((Cyclobutylmethyl)amino)-4-(difluoromethyl)pyridine-3-yl)-N-(2-hydroxy-2-methylpropyl)-4-(2-methylpyrrolidine-1-carbonyl)thiazole-2-carboxamide], the pKd in experiment [1] is 7.52. At full-length human RORγt, the inhibition at 3 µM stood at 95% and the pIC50 was 7.08.

For the molecule `CC(C)[C@H](C)Nc1cc(C(F)F)c(-c2sc(C(=O)NCC(C)(C)O)nc2C(=O)N2CCC[C@@H]2C)cn1` [Example 300, 5-(4-(Difluoromethyl)-6-(((S)-3-methylbutan-2-yl)amino)pyridine-3-yl)-N-(2-hydroxy-2-methylpropyl)-4-((S)-2-methylpyrrolidine-1-carbonyl)thiazole-2-carboxamide], in experiment [1], the pKd is 8.80. Also, at full-length human RORγt, the inhibition at 3 µM was found to be 100% and the negative logarithm of the IC50 (pIC50) was 7.54.
